Positions of bridges follow the written chain, without caps; N, C: chain ends. Non-standard residues stand in square brackets, D forms with d. Residues, ends and D or L forms follow the SMILES beside them. *: point of attachment. hPhe(3-Cl-4-CF3) = N[C@@H](CCc1ccc(C(F)(F)F)c(Cl)c1)C(=O)O; hPhe(3-F,4-CF3) = N[C@@H](CCc1ccc(C(F)(F)F)c(F)c1)C(=O)O; NMePhe(4-CF3) = CN[C@@H](Cc1ccc(C(F)(F)F)cc1)C(=O)O; 3Oxa8azabicyclo(3.2.1)octane = C1CC2COCC1N2*; NEtPhe(4-Me) = CCN[C@@H](Cc1ccc(C)cc1)C(=O)O; NMePhe(4-Me) = CN[C@@H](Cc1ccc(C)cc1)C(=O)O; NMeAla(cPent) = CN[C@@H](CC1CCCC1)C(=O)O; NMeGly(cPent) = CN[C@H](C(=O)O)C1CCCC1; NMeCha = CN[C@@H](CC1CCCCC1)C(=O)O; NMehLeu = CN[C@@H](CCC(C)C)C(=O)O; NEtLeu = CCN[C@@H](CC(C)C)C(=O)O; NMeI = CC[C@H](C)[C@H](NC)C(=O)O; Piperidide(4-Me) = CC1CCN(*)CC1; NMeD = CN[C@@H](CC(=O)O)C(=O)O; NMeL = CN[C@@H](CC(C)C)C(=O)O; NMeV = CN[C@H](C(=O)O)C(C)C; d(β3hA) = C[C@@H](N)CC(=O)O; Azetidin(1-yl) = C1CN(*)C1; NMeS = CN[C@@H](CO)C(=O)O; Morpholide = C1CN(*)CCO1; NMeA = CN[C@@H](C)C(=O)O; Piperidide = C1CCN(*)CC1; Ac5c = NC1(C(=O)O)CCCC1; Aze = O=C(O)[C@@H]1CCN1; NEtG = CCNCC(=O)O; Sar = CNCC(=O)O; Propyl = CCC*

The assay concerns Human pancreatic cancer cell line AsPC-1. In words: Measurement of AsPC-1 cell growth inhibition (AsPC-1 CGI). The format is cell-based. The conditions noted are these: 96 h. Put shortly: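 AsPC-1 cells in 15% FBS RPMI-1640 were exposed to test compound for 96 hours at 37° C, with CellTiter-Glo as endpoint.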
The IC50 is the concentration needed to halve the response being measured. With `CC[C@H](C)[C@@H]1NC(=O)[C@H](CCC(C)C)N(C)C(=O)C[C@@H](C(=O)N2CCOCC2)N(C)C(=O)[C@H](C2CCCC2)N(C)C(=O)C2(CCCC2)NC(=O)[C@@H]2CCCN2C(=O)[C@H](CCc2ccc(C(F)(F)F)c(Cl)c2)NC(=O)CN(C)C(=O)[C@H](C2CCCC2)N(C)C(=O)[C@@H]2CCN2C(=O)[C@H](C)NC1=O` [Compound 1223] ([NMehLeu]IA[Aze][NMeGly(cPent)][Sar][hPhe(3-Cl-4-CF3)]P[Ac5c][NMeGly(cPent)][NMeD]-Morpholide; lactam N-11), the 50% inhibitory concentration (IC50) lay within 20 to 50 nM. The figure for `CC[C@H](C)[C@@H]1NC(=O)[C@H](CC(C)C)N(CC)C(=O)C[C@@H](C(=O)N2CCOCC2)N(C)C(=O)[C@H]([C@@H](C)CC)N(C)C(=O)C2(CCCC2)NC(=O)[C@@H]2CCCN2C(=O)[C@H](CCc2ccc(C(F)(F)F)c(Cl)c2)NC(=O)CN(C)C(=O)[C@H](Cc2ccc(C(F)(F)F)cc2)N(C)C(=O)[C@@H]2CCN2C(=O)[C@H](C)NC1=O` [Compound 1233] ([NEtLeu]IA[Aze][NMePhe(4-CF3)][Sar][hPhe(3-Cl-4-CF3)]P[Ac5c][NMeI][NMeD]-Morpholide; lactam N-11) is 50 to 100 nM.

Consider `CC[C@H](C)[C@@H]1NC(=O)[C@H](CC(C)C)N(C)C(=O)C[C@@H](C(=O)N2C3CCC2COC3)N(C)C(=O)[C@H](C2CCCC2)N(C)C(=O)C2(CCCC2)NC(=O)[C@@H]2CCCN2C(=O)[C@H](CCc2ccc(C(F)(F)F)c(Cl)c2)NC(=O)CN(C)C(=O)[C@H](Cc2ccc(C)cc2)N(CC)C(=O)[C@@H]2CCN2C(=O)[C@H](C)N(C)C1=O` [Compound 1236] ([NMeL]I[NMeA][Aze][NEtPhe(4-Me)][Sar][hPhe(3-Cl-4-CF3)]P[Ac5c][NMeGly(cPent)][NMeD]-{3Oxa8azabicyclo(3.2.1)octane}; lactam N-11), for which the IC50 was in the range of 20 to 50 nM. Molecule `CCCOC[C@H]1C(=O)N(C)CC(=O)N[C@@H](CCc2ccc(C(F)(F)F)c(Cl)c2)C(=O)N2CCC[C@H]2C(=O)NC2(CCCC2)C(=O)N(C)[C@@H](C2CCCC2)C(=O)N(C)[C@H](C(=O)N2C3CCC2COC3)CC(=O)N(C)[C@@H](CC2CCCC2)C(=O)N[C@@H]([C@@H](C)CC)C(=O)N(C)[C@@H](C)C(=O)N2CC[C@H]2C(=O)N1C` [Compound 1251] ([NMeAla(cPent)]I[NMeA][Aze][NMeS](Propyl)[Sar][hPhe(3-Cl-4-CF3)]P[Ac5c][NMeGly(cPent)][NMeD]-{3Oxa8azabicyclo(3.2.1)octane}; lactam N-11) registered a concentration for half-maximal inhibition (IC50) of 20 to 50 nM. Consider `CC[C@H](C)[C@@H]1NC(=O)[C@H](CC(C)C)N(CC)C(=O)C[C@@H](C(=O)N2CCC2)N(C)C(=O)[C@H](C2CCCC2)N(C)C(=O)C2(CCCC2)NC(=O)[C@@H]2CCCN2C(=O)[C@H](CCc2ccc(C(F)(F)F)c(Cl)c2)NC(=O)CN(C)C(=O)[C@H](CC2CCCCC2)N(C)C(=O)[C@@H]2CCN2C(=O)[C@H](C)NC1=O` [Compound 1262] ([NEtLeu]IA[Aze][NMeCha][Sar][hPhe(3-Cl-4-CF3)]P[Ac5c][NMeGly(cPent)][NMeD]-{Azetidin(1-yl)}; lactam N-11), for which the IC50 was 100 to 500 nM. For the molecule `CC[C@H](C)[C@@H]1NC(=O)[C@H](CC(C)C)N(CC)C(=O)C[C@@H](C(=O)N2CCOCC2)N(C)C(=O)[C@H](C2CCCC2)N(C)C(=O)C2(CCCC2)NC(=O)[C@@H]2CCCN2C(=O)[C@H](CCc2ccc(C(F)(F)F)c(Cl)c2)NC(=O)CN(C)C(=O)[C@H](CC2CCCCC2)N(C)C(=O)[C@@H]2CCN2C(=O)[C@H](C)NC1=O` [Compound 1266] ([NEtLeu]IA[Aze][NMeCha][Sar][hPhe(3-Cl-4-CF3)]P[Ac5c][NMeGly(cPent)][NMeD]-Morpholide; lactam N-11), the IC50 was in the range of 100 to 500 nM. Molecule `CC[C@H](C)[C@@H]1NC(=O)[C@H](CC(C)C)N(CC)C(=O)C[C@@H](C(=O)N(C)C)N(C)C(=O)[C@H]([C@@H](C)CC)N(C)C(=O)C2(CCCC2)NC(=O)[C@@H]2CCCN2C(=O)[C@H](CCc2ccc(C(F)(F)F)c(Cl)c2)NC(=O)CN(C)C(=O)[C@H](Cc2ccc(C)cc2)N(C)C(=O)[C@@H]2CCN2C(=O)[C@H](C)NC1=O` [Compound 1287] ([NEtLeu]IA[Aze][NMePhe(4-Me)][Sar][hPhe(3-Cl-4-CF3)]P[Ac5c][NMeI][NMeD]-NMe2; lactam N-11) came in with a half-inhibitory concentration (IC50) of 20 to 50 nM. Then `CC[C@H](C)[C@@H]1NC(=O)[C@H](CC(C)C)N(C)C(=O)C[C@@H](C(=O)N2CCC(C)CC2)N(C)C(=O)[C@H](C(C)C)N(C)C(=O)C2(CCCC2)NC(=O)[C@@H]2CCCN2C(=O)[C@H](CCc2ccc(C(F)(F)F)c(Cl)c2)NC(=O)CN(C)C(=O)[C@H](CC2CCCCC2)N(C)C(=O)[C@@H]2CCN2C(=O)[C@H](C)N(C)C1=O` [Compound 1291] ([NMeL]I[NMeA][Aze][NMeCha][Sar][hPhe(3-Cl-4-CF3)]P[Ac5c][NMeV][NMeD]-{Piperidide(4-Me)}; lactam N-11), with 100 to 500 nM. Regarding `CC[C@H](C)[C@@H]1NC(=O)[C@H](CCC(C)C)N(C)C(=O)C[C@@H](C(=O)N(C)C)N(C)C(=O)[C@H](C2CCCC2)N(C)C(=O)C2(CCCC2)NC(=O)[C@@H]2CCCN2C(=O)[C@H](CCc2ccc(C(F)(F)F)c(F)c2)NC(=O)CN(C)C(=O)[C@H](CC2CCCCC2)N(C)C(=O)[C@@H]2CCN2C(=O)[C@H](C)NC1=O` [Compound 1292] ([NMehLeu]IA[Aze][NMeCha][Sar][hPhe(3-F,4-CF3)]P[Ac5c][NMeGly(cPent)][NMeD]-NMe2; lactam N-11), the IC50 lay within 20 to 50 nM.

In turn, `CCCOC[C@H]1C(=O)N(C)CC(=O)N[C@@H](CCc2ccc(C(F)(F)F)c(Cl)c2)C(=O)N2CCC[C@H]2C(=O)NC2(CCCC2)C(=O)N(C)[C@@H](C2CCCC2)C(=O)N(C)[C@H](C(=O)N2C3CCC2COC3)CC(=O)N(C)[C@@H](CC(C)C)C(=O)N[C@@H]([C@@H](C)CC)C(=O)N[C@@H](C)C(=O)N2CC[C@H]2C(=O)N1C` [Compound 1299] ([NMeL]IA[Aze][NMeS](Propyl)[Sar][hPhe(3-Cl-4-CF3)]P[Ac5c][NMeGly(cPent)][NMeD]-{3Oxa8azabicyclo(3.2.1)octane}; lactam N-11) showed an IC50 of 20 to 50 nM. In turn, `CC[C@H](C)[C@@H]1NC(=O)[C@H](CC(C)C)N(C)C(=O)C[C@@H](C(=O)N2CCOCC2)N(C)C(=O)[C@H](C2CCCC2)N(C)C(=O)C2(CCCC2)NC(=O)[C@@H]2CCCN2C(=O)[C@H](CCc2ccc(C(F)(F)F)c(Cl)c2)NC(=O)CN(C)C(=O)[C@H](C2CCCC2)N(C)C(=O)[C@@H]2CCN2C(=O)[C@H](C)NC1=O` [Compound 1309] ([NMeL]IA[Aze][NMeGly(cPent)][Sar][hPhe(3-Cl-4-CF3)]P[Ac5c][NMeGly(cPent)][NMeD]-Morpholide; lactam N-11) gave an IC50 of 50 to 100 nM. Then `CCCOC[C@H]1C(=O)N(C)CC(=O)N[C@@H](CCc2ccc(C(F)(F)F)c(Cl)c2)C(=O)N2CCC[C@H]2C(=O)NC2(CCCC2)C(=O)N(C)[C@@H](C2CCCC2)C(=O)N(C)[C@H](C(=O)N2C3CCC2COC3)CC(=O)N(C)[C@@H](CCC(C)C)C(=O)N[C@@H]([C@@H](C)CC)C(=O)N[C@@H](C)C(=O)N2CC[C@H]2C(=O)N1C` [Compound 1326] ([NMehLeu]IA[Aze][NMeS](Propyl)[Sar][hPhe(3-Cl-4-CF3)]P[Ac5c][NMeGly(cPent)][NMeD]-{3Oxa8azabicyclo(3.2.1)octane}; lactam N-11), with 20 to 50 nM; and `CC[C@H](C)[C@@H]1NC(=O)[C@H](CC(C)C)N(C)C(=O)C[C@@H](C)NC(=O)[C@H](C2CCCC2)N(C)C(=O)C2(CCCC2)NC(=O)[C@@H]2CCCN2C(=O)[C@H](CCc2ccc(C(F)(F)F)c(Cl)c2)NC(=O)CN(C)C(=O)[C@H](Cc2ccc(C)cc2)N(C)C(=O)[C@@H]2CCN2C(=O)[C@H](C)NC1=O` [Compound 1331] (cyclo(A[Aze][NMePhe(4-Me)][Sar][hPhe(3-Cl-4-CF3)]P[Ac5c][NMeGly(cPent)][d(β3hA)][NMeL]I)), with 50 to 100 nM.

Take `CC[C@H](C)[C@@H]1NC(=O)[C@H](CC(C)C)N(C)C(=O)C[C@@H](C(=O)N2CCCCC2)N(C)C(=O)[C@H](C(C)C)N(C)C(=O)C2(CCCC2)NC(=O)[C@@H]2CCCN2C(=O)[C@H](CCc2ccc(C(F)(F)F)c(Cl)c2)NC(=O)CN(C)C(=O)[C@H](CC2CCCCC2)N(C)C(=O)[C@@H]2CCN2C(=O)[C@H](C)NC1=O` [Compound 1334] ([NMeL]IA[Aze][NMeCha][Sar][hPhe(3-Cl-4-CF3)]P[Ac5c][NMeV][NMeD]-Piperidide; lactam N-11): the IC50 was 100 to 500 nM.

In turn, `CCCOC[C@H]1C(=O)N(CC)CC(=O)N[C@@H](CCc2ccc(C(F)(F)F)c(Cl)c2)C(=O)N2CCC[C@H]2C(=O)NC2(CCCC2)C(=O)N(C)[C@@H](C2CCCC2)C(=O)N(C)[C@H](C(=O)N2C3CCC2COC3)CC(=O)N(C)[C@@H](CC(C)C)C(=O)N[C@@H]([C@@H](C)CC)C(=O)N(C)[C@@H](C)C(=O)N2CC[C@H]2C(=O)N1C` [Compound 1338] ([NMeL]I[NMeA][Aze][NMeS](Propyl)[NEtG][hPhe(3-Cl-4-CF3)]P[Ac5c][NMeGly(cPent)][NMeD]-{3Oxa8azabicyclo(3.2.1)octane}; lactam N-11) came in with a half-inhibitory concentration (IC50) of 50 to 100 nM. In turn, `CC[C@H](C)[C@@H]1NC(=O)[C@H](CC2CCCC2)N(C)C(=O)C[C@@H](C(=O)N(C)C)N(C)C(=O)[C@H](C2CCCC2)N(C)C(=O)C2(CCCC2)NC(=O)[C@@H]2CCCN2C(=O)[C@H](CCc2ccc(C(F)(F)F)c(F)c2)NC(=O)CN(C)C(=O)[C@H](CC2CCCCC2)N(C)C(=O)[C@@H]2CCN2C(=O)[C@H](C)NC1=O` [Compound 1340] ([NMeAla(cPent)]IA[Aze][NMeCha][Sar][hPhe(3-F,4-CF3)]P[Ac5c][NMeGly(cPent)][NMeD]-NMe2; lactam N-11) showed a half-inhibitory concentration (IC50) of 20 to 50 nM.

In turn, `CC[C@H](C)[C@@H]1NC(=O)[C@H](CC(C)C)N(C)C(=O)C[C@@H](C(=O)N2CCCCC2)NC(=O)[C@H](C(C)C)N(C)C(=O)C2(CCCC2)NC(=O)[C@@H]2CCCN2C(=O)[C@H](CCc2ccc(C(F)(F)F)c(Cl)c2)NC(=O)CN(C)C(=O)[C@H](CC2CCCCC2)N(C)C(=O)[C@@H]2CCN2C(=O)[C@H](C)N(C)C1=O` [Compound 1353] ([NMeL]I[NMeA][Aze][NMeCha][Sar][hPhe(3-Cl-4-CF3)]P[Ac5c][NMeV]D-Piperidide; lactam N-11) showed an IC50 of 100 to 500 nM.

Source of the values: patent publication US12371454B2, “Cyclic peptide compound having Kras inhibitory action” (priority 2019, dated 2025).
